Results published in PMC9934914, “A novel class of sulphonamides potently block malaria transmission by targeting a Plasmodium vacuole membrane protein” (Disease Models & Mechanisms, 2023).

What was measured:
[1] = biological target: T1, Pfs16 (Plasmodium falciparum, UniProt Q6ZMA7); assay: CETSA melt curve with immunoblot; type: biochemical; conditions: 100 µM compound
T1 construct: native full-length protein in stage V gametocytes or their Triton X-100 lysate; 157 residues, 16 kDa, one TM domain
T1 sequence (Q6ZMA7 26-157): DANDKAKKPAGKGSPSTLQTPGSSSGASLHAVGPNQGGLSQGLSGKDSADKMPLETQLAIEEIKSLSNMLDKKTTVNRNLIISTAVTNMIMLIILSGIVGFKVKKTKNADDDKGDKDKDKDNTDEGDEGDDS

[2] = biological target: T1, Pfs16; assay: photoaffinity labelling of live gametocytes, pulldown, TMT LC-MS/MS and immunoblot; type: cell-based; conditions: covalent (aryl azide photo-crosslink, 254 nm); 2.5 to 10 µM probe, 37 °C

O=S(=O)(NCC1(O)CCOc2ccccc21)c1ccc(Br)s1 (stereo not drawn) [DDD01035881]
Tm shift ([1]; pH 7.5, activated stage V gametocyte lysate, also isothermal dose response at 78.4 °C, 1 nM to 100 µM): DDD01035881 treatment clearly resulted in a positive shift in the Pfs16 melting curve

C#Cc1ccc2c(c1)C(O)(CNS(=O)(=O)c1cccc(N=[N+]=[N-])c1)CCO2 (stereo not drawn) [compound 2, probe 2]
photoaffinity labelling of live gametocytes, pulldown, TMT LC-MS/MS and immunobl [2]: a dose-dependent pulldown of Pfs16 was clearly observed

O=S(=O)(NCC1(O)CCOc2ccccc21)c1cccc(Br)c1 (single isomer, unassigned; (-)) [(−)-DDD01028076]
Tm shift ([1]; pH 7.5, stage V gametocyte lysate): A shift in the Pfs16 melting curve was also evident in the presence of (−)-DDD01028076
